Experimental findings from the METLIN SMRT retention time set (Domingo-Almenara et al. 2019) are described below.

The series is described as follows: gradient 5% acetonitrile 3 min, to 50% in 2 min, to 85% in 15 min, held 3 min, 100 µL/min. To be noted: column: Zorbax Extend-C18 2.1 x 50 mm; eluents: water / acetonitrile, 0.1% formic acid. In outline: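 The mobile phases were water and acetonitrile, each with 0.1% formic acid, pumped at 100 μL/min through a Zorbax Extend-C18 column (2.1 × 50 mm, 1.8 μm). Pure standards were injected as mixtures of ~100 molecules and detected by a quadrupole time-of-flight mass spectrometer in positive and negative ionization mode. Retention time came from computationally picked adduct peaks, each inspected by hand.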
`CCCNC(=O)N1CCCN(C2=NS(=O)(=O)C(c3ccc(C)cc3)=C2C)CC1` returned an RP-LC retention time of 776 s.
To `COC(=O)Nc1ccc(S(=O)(=O)N2CCCC(C(F)(F)F)C2)cc1` (centres undefined) belongs 837 s.
Take `N#Cc1ccc(S(=O)(=O)N2CCC(Cc3nc(-c4ccncc4)n[nH]3)C2)cc1` (centres undefined): the RP-LC retention time turned out to be 620 s.
To `Cc1cccc2c(=O)n(C3CCN(S(=O)(=O)c4ccc(CC(C)C)cc4)CC3)cnc12` belongs 1230 s; to `C=CCN1C(=O)COc2ccc(-c3nc(NC(=O)C4CC4)sc3C)cc21`, 887 s.
As to `CCOc1cccc(-c2noc(Cn3c(=O)n(-c4cccc(OC)c4)c(=O)c4sccc43)n2)c1`, the RP-LC retention time is 970 s.
The molecule `O=S(=O)(c1cc(-c2noc(C3CCCC3)n2)cs1)N1CCCCC1` registered an RP-LC retention time of 1240 s.
Molecule `Cc1cccc(OCc2nc(-c3ccc4c(c3)nnn4CCC(=O)N3CCOCC3)no2)c1` had an RP-LC retention time of 863 s.
In the case of `CCC(C)NC(=O)CCc1c(-c2ccc(Br)cc2)nc2ccccn12` (centres undefined) it was 657 s; in that of `COc1ccc(C)cc1NS(=O)(=O)c1cc(-c2c(C)noc2NC(C)=O)ccc1C`, 804 s.
To `CN1c2cc(F)ccc2C(=O)NC12CCN(C(=O)Nc1ccc3c(c1)OCCO3)CC2` belongs 725 s; to `Cc1ccc(C(=O)NCC2CCCN(S(=O)(=O)c3c(C)cc(C)cc3C)C2)cc1` (centres undefined), 1060 s; to `Cc1ccc(-c2noc(Cn3cnc4c(cnn4-c4ccccc4)c3=O)n2)cc1`, 1090 s.
In the case of `COc1cc(OC)c(NC(=O)N2CCC(n3cnc4cccnc43)CC2)cc1Cl` it was 670 s; in that of `O=C(C1CCN(c2cnc(N3CCCC3)nc2)CC1)N1CCCCC1`, 616 s.
As to `COc1ccc(NC(=O)C2(C)Oc3cccnc3NC2=O)cc1OC` (centres undefined), the RP-LC retention time was 651 s.
In the case of `CCCn1cc(-c2ccncc2)cc1C(=O)Nc1ccc(NC(C)=O)cc1` it was 594 s.
To `CCC(=O)NCc1nc2c(n1CC)CN(C(=O)c1cccc(Br)c1)CC2` belongs 596 s; to `O=C1NC2C(=CC(O)C(O)C2O)c2cc3c(cc21)OCO3` (centres undefined), 568 s.
To `O=C(c1ccc(F)c(Cl)c1)N1CCN(c2cc(-c3cccnc3)[nH]n2)CC1` belongs 620 s; to `CCCC(C)C(=O)NC1CCN(C2=NS(=O)(=O)C(c3ccc(C)c(C)c3)=C2C)CC1` (centres undefined), 927 s.
`COc1ccc(NC(=O)c2[nH]c3cc(C)sc3c2CN2CCOCC2)cc1OC`: the RP-LC retention time turned out to be 635 s.
In the case of `COC(=O)c1cccc(NC(=O)c2c[nH]c3ncccc23)c1` it was 708 s; in that of `O=C(NCCCN1CCOCC1)C1CCCN(c2ncc(-c3cccc(F)c3)cn2)C1` (centres undefined), 653 s.
To `COc1ccc(OC)c(S(=O)(=O)NCC(c2cccs2)N2CCc3ccccc32)c1` (centres undefined) belongs 1010 s; to `Cc1cc(=O)n(CC(=O)Nc2cc(F)ccc2F)c(N2CCCC2)n1`, 641 s.
In the case of `COC(=O)c1ncn2c1C(=O)N(Cc1ccc(C)cc1)C(C)(C(=O)NC1CCCC1)C2` (centres undefined) it was 766 s; in that of `Cc1nn(-c2ccccc2)c(C)c1CCc1nn2c(-c3cccc(F)c3)nnc2s1`, 934 s.
`Cc1nnc2n1CCC(NC(=O)c1cscn1)CC2` (centres undefined) registered an RP-LC retention time of 542 s.
In the case of `Cc1ccc(CN2C(=O)C3CCCN3C(=O)c3ccccc32)cc1` (centres undefined) it was 797 s.
In the case of `Cc1ccc(-n2c(=O)c3c(cc(C)n3C)n(CC(=O)Nc3cccc(Cl)c3C)c2=O)cc1` it was 918 s; in that of `COc1ccc2c(c1)C1(CCN(C(=O)c3cccc(C)c3)C1)C(=O)N2C` (centres undefined), 823 s.
To `O=C(Nc1ccccc1C(F)(F)F)C1CN(C(=O)c2ccc(F)c(F)c2)C1` belongs 748 s; to `Cc1ccc(CNC(=O)C2CCCN(C(=O)Cc3cccc4ccccc34)C2)o1` (centres undefined), 806 s; to `COc1ccc(NC(=O)C2CC(=O)N(CCc3c[nH]c4ccc(OC)cc34)C2)cc1` (centres undefined), 728 s.
In turn, `O=C(c1ccc(Cl)cc1Cl)N1CC(c2nc(C3CC3)no2)C1` came in with an RP-LC retention time of 818 s.
To `Cc1ccc(CNC(=O)Cn2c(=O)cc(-c3nc(C)no3)c3ccccc32)cc1` belongs 857 s.
In the case of `CC1=C(c2ccc(Cl)cc2)S(=O)(=O)N=C1N1CCC(C(=O)NCCN(C)C)CC1` it was 642 s.
In the case of `CCOc1ccc(S(=O)(=O)N2CCCC(C(=O)NCCc3ccc(OC)c(OC)c3)C2)cc1` (centres undefined) it was 884 s; in that of `Cc1ccc(NC(=O)NC2CCN(c3ccccc3)C2=O)cc1C` (centres undefined), 853 s; in that of `COc1ccc(-c2nc3ccc(C)cn3c2Nc2ccc(C)cc2)cc1`, 778 s.
`O=C(Cc1cc(-c2ccc(Cl)cc2)on1)NCCC1=CCCCC1` registered an RP-LC retention time of 584 s.
For the molecule `Cc1nn(CC(=O)NCCCN2CCCC2=O)c(=O)c2nc(-c3ccccc3)sc12`, the RP-LC retention time stood at 668 s.
To `CCn1ccc(C(=O)N2CC(c3nc(C4CC4)nn3C)C2)n1` belongs 610 s.
In the case of `O=C(NCCC1CCN(C(=O)Nc2ccccc2)CC1)c1ccoc1` it was 704 s; in that of `O=C(NCc1ccccc1F)C1CCCN(c2nnc3ccc(Cl)cn23)C1` (centres undefined), 756 s; in that of `O=C(c1ccccn1)N1CCCC(c2n[nH]c(C3CC3)n2)C1` (centres undefined), 542 s.
Take `Cc1ccc(CNC(=O)CSc2nc3nc(C)cc(C)n3n2)cc1`: the RP-LC retention time was found to be 697 s.
In the case of `CCc1ccccc1NC(=O)N1CCC2(CC1)NC(=O)c1cc(F)ccc1N2C` it was 791 s.
To `COc1ccc(-c2noc(-c3nc(Cc4ccc(F)cc4)no3)n2)cc1` belongs 1170 s; to `COc1ccccc1COC(=O)C1=CN(Cc2ccccc2)S(=O)(=O)N=C1C`, 1130 s.
To `COCCCNC(=O)C1CCN(c2ncnc3c2oc2ccccc23)CC1` belongs 613 s; to `Cc1cc(F)ccc1NC(=O)C1CCCN1S(=O)(=O)c1cc2c(cc1C)NC(=O)C(C)O2` (centres undefined), 812 s.
The molecule `O=C(NC1CC1)C1CCN(C(=O)c2ncn3c2COC(c2ccccc2)C3)CC1` (centres undefined) came in with an RP-LC retention time of 619 s.
Turning to `COc1cccc(CNC(=O)CCC2CCN(c3cc(NC4CC4)ncn3)CC2)c1`, the RP-LC retention time was found to be 575 s.
In the case of `Cc1ccc(NC(=O)Cc2nnc(-c3cnccn3)o2)c(Cl)c1`, the RP-LC retention time was determined as 720 s.
`CC1(C)C(=O)NCCN1C(=O)c1cccc(Cl)c1` came in with an RP-LC retention time of 637 s.
For `Cc1c(NC(=O)OC[C@@H]2COCCN2)cn2ncnc(Nc3ccc4c(cnn4Cc4cccc(F)c4)c3)c12`, the RP-LC retention time stood at 674 s.
Take `Cc1cc(N2CCN(S(=O)(=O)c3ccc(Cl)cc3)CC2)nc(NC2CCCCC2)n1`: the RP-LC retention time amounted to 884 s.
